B1: Akt.KM: kinase-dead mutant (K179M) chimeric Akt (protein, UniProt P31750 1-480, looked up, variant K179M)
RAC-alpha …: MNDVAIVKEGWLHKRGEYIKTWRPRYFLLKNDGTFIGYKERPQDVDQRESPLNNFSVAQCQLMKTERPRPNTFIIRCLQWTTVIERTFHVETPEEREEWATAIQTVADGLKRQEEETMDFRSGSPSDNSGAEEMEVSLAKPKHRVTMNEFEYLKLLGKGTFGKVILVKEKATGRYYAMMILKKEVIVAKDEVAHTLTENRVLQNSRHPFLTALKYSFQTHDRLCFVMEYANGGELFFHLSRERVFSEDRARFYGAEIVSALDYLHSEKNVVYRDLKLENLMLDKDGHIKITDFGLCKEGIKDGATMKTFCGTPEYLAPEVLEDNDYGRAVDWWGLGVVMYEMMCGRLPFYNQDHEKLFELILMEEIRFPRTLGPEAKSLLSGLLKKDPTQRLGGGSEDAKEIMQHRFFANIVWQDVYEKKLSPPFKPQVTSETDTRYFDEEFTAQMITITPPDQDDSMECVDSERRPHFPQFSYSASGTA
modifications: chimeric

Tested on: NF-.kappa.B
Test: NF-.kappa.B/SEAP reporter assay in Jurkat-TAg cells (Example 10, iAkt)
Type: cell-based, human
Procedure: Jurkat-TAg cells in logarithmic-phase growth were electroporated ([…], 250 V; Gene Pulser II (BIO-RAD)) with expression plasmids and the NF-.kappa.B-SEAP reporter plasmid. After 24 hours, transfected cells were stimulated with sub-optimal levels of the phorbol ester PMA (5 ng/ml) along with log dilutions of the heterodimerizing CID, AP22783, and additional treatments. After an additional 24 hours, supernatants were assayed for SEAP activity.
Two key requirements for efficient synthetic regulation of a biological event are highly specific conditional dependency and low background. […] Therefore, in order to optimize iAkt, an NF-.kappa.B-responsive secreted alkaline phosphatase (SEAP) reporter plasmid was used as an assay for Akt activation.
Briefly, the human T cell line, Jurkat-TAg, was cotransfected with reporter plasmid, NF-.kappa.B/SEAP, along with constitutively active M-Akt expression vector or empty control vector. Twenty-four hours after transfection, cells were divided into aliquots that were stimulated with sub-optimal levels (5 ng/ml) of the phorbol ester, PMA, or were untreated. After an additional 24 hours, SEAP activity was measured. Although Akt activity alone was insufficient to induce measurable NF-.kappa.B activity, M-Akt expression potentiated (by 3-4 fold) PKC-induced NF-.kappa.B activity, consistent with multiple reports. […]

Row | Molecule | NF-.kappa.B activation by M-Akt plus PKC in presence of inhibitor (LY294002 5 μM, wortmannin 1 μM, R0318220 1 μM) | NF-.kappa.B induction on CID (AP22783)-mediated membrane recruitment via M-FRB12 (5 ng/ml PMA, log dilutions of AP22783)
1 | Cn1cc(C2=C(c3cn(CCCSC(=N)N)c4ccccc34)C(=O)NC2=O)c2ccccc21 [R0318220] | complete inhibition of NF-.kappa.B | –
2 | B1 | – | no detectable effect on NF-.kappa.B induction over PMA alone
